Consider one compound from US20110280941A1, “COMPOSITIONS OF PROTON PUMP INHIBITORS AND INSULIN SECRETAGOGUES, AND METHODS OF THEIR USE TO TREAT DIABETES” (Mefford Scientific, LLC, priority 2008, published 2011).

Common to all, as to assay type: in vivo, human
Assay [1] concerns Type II diabetic patients. Kind of assay: 2 hour glucose tolerance test during 24 week omeprazole trial (Example 4). The protocol: (§1) Seven Type II diabetic patients were administered omeprazole for 24 weeks and data was obtained from fasting and following a 2 hour glucose tolerance test at 8 week intervals and compared to baseline values. Statistical comparisons and analysis were performed with a commercial program, Analyse-it, version 2.20.
(§2) Subjects: Five males, 2 females, age range 42-68 years, mean age 54+10 years. BMI's ranged from 31 to 49, mean 38+6. All subjects had co-morbid hypertension, four had co-morbid dyslipidemia and two had co-morbid hypothyroidism. All were stable on oral diabetes medications with 7/7 on metformin, 6/7 on pioglitazone (Actos), 4/7 on a DPP-4 inhibitor, sitagliptan (Januvia) and 4/7 on a Sulfonylurea. All subjects received a physical exam, review of systems and a baseline EKG prior to initiating the PPI trial. Subjects were then seen and evaluated at monthly intervals interviewed for adverse events and monitored for medication compliance and maintenance of daily blood glucose logs.
(§3) Design: All subjects continued on their respective oral antidiabetic medications throughout the study. Baseline data was obtained in a fasting state after an overnight fast. Subjects were then administered 75 g of glucose and blood samples obtained at 1 and 2 hours. Following collection of baseline data, subjects were administered Omeprazole Delayed-Release Capsules USP, (Apotex Inc., Toronto, Canada M9L 179), 40 mg orally twice daily and blood samples again obtained after 8, and 16 weeks. Medications were not taken on the mornings of testing. Following the 16 week sample collection, subjects were increased to 80 mg Omeprazole twice daily and blood samples again obtained at 24 weeks.
Measurements: Helicobacter Pylori IgG was obtained on each subject as a baseline as were Hemoglobin A1c and fasting Gastrin. Each 2 hour glucose tolerance test provided fasting glucose, insulin and c-peptide as well as 1 hour and 2 hour glucose and stimulated insulin and c-peptide. All measurements were obtained through a commercial laboratory using standardized analytical methods, Quest Diagnostics Laboratory, 5850 Rogerdale Road, Houston, Tex. 77072.

For assay [2], the system named is Type II diabetic patients. Kind of assay: Hemoglobin A1c during 24 week omeprazole trial (Example 4). As for the experimental part:
as §1, §2
Design: All subjects continued on their respective oral antidiabetic medications throughout the study. Baseline data was obtained in a fasting state after an overnight fast. Subjects were then administered 75 g of glucose and blood samples obtained at 1 and 2 hours. […]

For assay [3], the system named is Type II diabetic patients. Kind of assay: % Beta Cell area calculated from the 2 hour glucose tolerance value (method of Meier et al) (Example 4). The settings on record: seven Type II diabetics; PPI administration. The protocol:
as §3
Table 2 summarizes the effects of PPI administration on plasma Gastrin, Hemoglobin A1c and % Beta Cell area (calculated using the 2 hour glucose tolerance value by the method of Meier et al, Diabetes, vol 58, 1595-1603, 2009). […] Hemoglobin A1c, a measure of average blood glucose, was reduced by approximately 0.9% in this cohort, consistent with improved diabetes control (FIG. 6). Finally, the calculated Beta cell mass increased across the treatment period by approximately 25%.

Assay [4] deals with Type II diabetic patients. Description: Plasma gastrin during 24 week omeprazole trial (Example 4). The settings on record: serum levels gradually reduced over time (FIG. 7).
Method: Statistical comparisons and analysis were performed with a commercial program, Analyse-it, version 2.20. Design: All subjects continued on their respective oral antidiabetic medications throughout the study. Baseline data was obtained in a fasting state after an overnight fast. Subjects were then administered 75 g of glucose and blood samples obtained at 1 and 2 hours. Following collection of baseline data, subjects were administered Omeprazole Delayed-Release Capsules USP, (Apotex Inc., Toronto, Canada [MUT] 179), 40 mg orally twice daily and blood samples again obtained after 8, and 16 weeks. Medications were not taken on the mornings of testing. Following the 16 week sample collection, subjects were increased to 80 mg Omeprazole twice daily and blood samples again obtained at 24 weeks. Measurements: Helicobacter Pylori IgG was obtained on each subject as a baseline as were Hemoglobin A1c and fasting Gastrin. Each 2 hour glucose tolerance test provided fasting glucose, insulin and c-peptide as well as 1 hour and 2 hour glucose and stimulated insulin and c-peptide. All measurements were obtained through a commercial laboratory using standardized analytical methods, Quest Diagnostics Laboratory, 5850 Rogerdale Road, Houston, Tex.
Where [5] appears, read: after PPI administration (FIG. 4).

As to `COc1ccc2[nH]c([S+]([O-])Cc3ncc(C)c(OC)c3C)nc2c1` (stereo not drawn) [Omeprazole, 5-methoxy-2-[(4-methoxy-3,5-dimethyl-2-pyridinyl)methyl]sulfinyl-1H-benzimidazole], in assay [1] (8 and 16 weeks, statistically significant reductions at 16 weeks (FIG. 3)), the “maximum glucose excursion at both 1 and 2 hours, change” value is listed as “reduced”. Further, in assay [1] (setting [5]), the “Stimulated insulin secretion at both 1 and 2 hours, change” value was “increased”; the “fasting insulin levels, change” value was “unchanged”. For the same compound, in assay [1] (after PPI administration (FIG. 5)), the “1 and 2 hour c-peptide secretion, change” value is “increased”. Moreover, in assay [1] (at both 8 and 16 weeks (FIG. 3)), the “Fasting blood glucose, change” value is listed as “reduced”. Moreover, the “percent hemoglobin A1c, change for all patients” value in assay [2] (FIG. 1, statistically significant) was “decrease”. For the same compound, the “Hemoglobin A1c reduction in this cohort” value in assay [2] (seven Type II diabetics, PPI administration up to 24 weeks (FIG. 6)) was “approximately 0.9%”. Moreover, in assay [3], the “calculated Beta cell mass increase across the treatment period” value is “approximately 25%”. In addition, the “plasma gastrin, change by long term PPI administration” value in assay [4] was “markedly elevated”.
